# Patent US10399987B2, “TGF beta receptor antagonists” (BRISTOL-MYERS SQUIBB COMPANY, priority 2015, dated 2019)
# Target: HIS-TGFβR1 T204D (Homo sapiens (Human), UniProt P36897, T204D)
# Test: TGFβR1 HIS T204D HTRF assay (labeled small molecule probe, anti-HIS detection antibody)
# Assay type: binding
# Conditions: 1 nM HIS-TGFβR1 T204D, probe at Kd, 1 hour at room temperature, eleven concentrations
# Chain of HIS-TGFβR1 T204D (P36897 34-503 T204D): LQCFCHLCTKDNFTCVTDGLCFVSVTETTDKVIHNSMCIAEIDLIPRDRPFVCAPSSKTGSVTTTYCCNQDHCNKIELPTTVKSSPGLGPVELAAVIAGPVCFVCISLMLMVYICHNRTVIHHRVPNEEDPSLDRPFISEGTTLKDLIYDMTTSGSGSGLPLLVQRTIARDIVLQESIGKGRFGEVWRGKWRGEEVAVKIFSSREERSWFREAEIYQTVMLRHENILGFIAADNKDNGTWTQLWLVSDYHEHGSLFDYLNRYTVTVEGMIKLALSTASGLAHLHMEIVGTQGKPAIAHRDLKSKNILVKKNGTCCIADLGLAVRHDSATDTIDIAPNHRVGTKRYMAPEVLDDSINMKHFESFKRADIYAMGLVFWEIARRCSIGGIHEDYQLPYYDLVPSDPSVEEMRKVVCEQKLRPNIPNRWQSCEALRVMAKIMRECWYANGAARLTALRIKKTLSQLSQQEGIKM
row,IC50 [nM],SMILES
1,0.91,"Fc1ccc(-c2nc(Nc3ccncc3F)c3cc[nH]c3n2)nc1 [Example 14, 2-(5-fluoropyridin-2-yl)-N-(3-fluoropyridin-4-yl)-7H-pyrrolo[2,3-d]pyrimidin-4-amine]"
2,160,"FC(F)c1cccc(-c2nc(Nc3ccnc(Cl)n3)c3cc[nH]c3n2)n1 [Example 15, N-(2-chloropyrimidin-4-yl)-2-(6-(difluoromethyl)pyridin-2-yl)-7H-pyrrolo[2,3-d]pyrimidin-4-amine]"
3,0.78,"CC(=O)Nc1cc(Nc2nc(-c3cccc(C(F)F)n3)nc3[nH]ccc23)ccn1 [Example 3, N-(4-((2-(6-(difluoromethyl)pyridin-2-yl)-7H-pyrrolo[2,3-d]pyrimidin-4-yl)amino)pyridin-2-yl)acetamide]"
4,970,"CS(=O)(=O)Nc1cc(Nc2nc(-c3cccc(C(F)(F)F)n3)nc3[nH]ccc23)ccn1 [Example 28, N-(4-((2-(6-(trifluoromethyl)pyridin-2-yl)-7H-pyrrolo[2,3-d]pyrimidin-4-yl)amino)pyridin-2-yl)methanesulfonamide]"
5,2.5,"COC(=O)Nc1cc(Nc2nc(-c3cccc(C(F)(F)F)n3)nc3[nH]ccc23)ccn1 [Example 30, methyl (4-((2-(6-(trifluoromethyl)pyridin-2-yl)-7H-pyrrolo[2,3-d]pyrimidin-4-yl)amino)pyridin-2-yl)carbamate]"
6,0.9,"CC(=O)Nc1cc(Nc2nc(-c3ccccn3)nc3[nH]ccc23)ccn1 [Example 21, N-(4-((2-(pyridin-2-yl)-7H-pyrrolo[2,3-d]pyrimidin-4-yl)amino)pyridin-2-yl)acetamide]"
7,0.25,"Fc1cnccc1Nc1nc(-c2cccc(C(F)F)n2)nc2[nH]ccc12 [Example 2, 2-(6-(difluoromethyl)pyridin-2-yl)-N-(3-fluoropyridin-4-yl)-7H-pyrrolo[2,3-d]pyrimidin-4-amine]"
8,1.7,"CC(=O)Nc1nccc(Nc2nc(-c3cccc(C(F)(F)F)n3)nc3[nH]ccc23)c1F [Example 36, N-[3-fluoro-4-({2-[6-(trifluoromethyl)pyridin-2-yl]-7H-pyrrolo[2,3-d]pyrimidin-4-yl}amino)pyridin-2-yl]acetamide]"
9,0.6,"FC(F)(F)c1cccc(-c2nc(Nc3ccncc3Cl)c3cc[nH]c3n2)n1 [Example 40, 3-chloro-N-{2-[6-(trifluoromethyl)pyridin-2-yl]-7H-pyrrolo[2,3-d]pyrimidin-4-yl}pyridin-4-amine]"
10,0.76,"COC(=O)Nc1cc(Nc2nc(-c3cccc(C(F)F)n3)nc3[nH]ccc23)ccn1 [Example 17, methyl (4-((2-(6-(difluoromethyl)pyridin-2-yl)-7H-pyrrolo[2,3-d]pyrimidin-4-yl)amino)pyridin-2-yl)carbamate]"
11,0.87,"Cc1cnccc1Nc1nc(-c2cccc(C(F)(F)F)n2)nc2[nH]ccc12 [Example 37, 3-methyl-N-{2-[6-(trifluoromethyl)pyridin-2-yl]-7H-pyrrolo[2,3-d]pyrimidin-4-yl}pyridin-4-amine]"
12,0.64,"FC(F)c1cccc(-c2nc(-n3ccc4cnccc43)c3cc[nH]c3n2)n1 [Example 12, 2-(6-(difluoromethyl)pyridin-2-yl)-4-(1H-pyrrolo[3,2-c]pyridin-1-yl)-7H-pyrrolo[2,3-d]pyrimidine]"
13,0.85,"CC(C)CC(=O)Nc1cc(Nc2nc(-c3cccc(C(F)(F)F)n3)nc3[nH]ccc23)ccn1 [Example 27, 3-methyl-N-(4-((2-(6-(trifluoromethyl)pyridin-2-yl)-7H-pyrrolo[2,3-d]pyrimidin-4-yl)amino)pyridin-2-yl)butanamide]"
14,1.2,"c1ccc(-c2nc(-n3ccc4cnccc43)c3cc[nH]c3n2)nc1 [Example 9, 2-(pyridin-2-yl)-4-(1H-pyrrolo[3,2-c]pyridin-1-yl)-7H-pyrrolo[2,3-d]pyrimidine]"
15,0.59,"CN(c1ccncc1)c1nc(-c2cccc(C(F)(F)F)n2)nc2[nH]ccc12 [Example 38, N-methyl-N-{2-[6-(trifluoromethyl)pyridin-2-yl]-7H-pyrrolo[2,3-d]pyrimidin-4-yl}pyridin-4-amine]"
16,4,"Cc1nc(-c2nc(Nc3cc(Cl)ncc3F)c3cc[nH]c3n2)ccc1F [Example 13, N-(2-chloro-5-fluoropyridin-4-yl)-2-(5-fluoro-6-methylpyridin-2-yl)-7H-pyrrolo[2,3-d]pyrimidin-4-amine]"
17,1,"CC(=O)Nc1cc(Nc2nc(-c3cccc(C)n3)nc3[nH]ccc23)ccn1 [Example 22, N-(4-((2-(6-methylpyridin-2-yl)-7H-pyrrolo[2,3-d]pyrimidin-4-yl)amino)pyridin-2-yl)acetamide]"
18,0.53,"CN1CCN(CC(=O)Nc2cc(Nc3nc(-c4cccc(C(F)(F)F)n4)nc4[nH]ccc34)ccn2)CC1 [Example 5, 2-(4-methylpiperazin-1-yl)-N-(4-((2-(6-(trifluoromethyl)pyridin-2-yl)-7H-pyrrolo[2,3-d]pyrimidin-4-yl)amino)pyridin-2-yl)acetamide]"
19,1.4,"CC(C)(O)CNCc1c[nH]c2nc(-c3cccc(C(F)F)n3)nc(Nc3ccncc3F)c12 [Example 35, 1-(((2-(6-(difluoromethyl)pyridin-2-yl)-4-((3-fluoropyridin-4-yl)amino)-7H-pyrrolo[2,3-d]pyrimidin-5-yl)methyl)amino)-2-methylpropan-2-ol]"
20,1.3,"CC(=O)Nc1cc(Nc2nc(-c3ccc(F)c(C)n3)nc3[nH]ccc23)c(F)cn1 [Example 18, N-(5-fluoro-4-((2-(5-fluoro-6-methylpyridin-2-yl)-7H-pyrrolo[2,3-d]pyrimidin-4-yl)amino)pyridin-2-yl)acetamide]"
21,5.8,"O=C1CCCN1c1cc(Nc2nc(-c3cccc(C(F)F)n3)nc3[nH]ccc23)ccn1 [Example 19, 1-(4-((2-(6-(difluoromethyl)pyridin-2-yl)-7H-pyrrolo[2,3-d]pyrimidin-4-yl)amino)pyridin-2-yl)pyrrolidin-2-one]"
22,2.2,"CS(=O)(=O)Nc1cccc(-c2nc(Nc3ccncc3Cl)c3cc[nH]c3n2)n1 [Example 49, N-(6-{4-[(3-chloropyridin-4-yl)amino]-7H-pyrrolo[2,3-d]pyrimidin-2-yl}pyridin-2-yl)methanesulfonamide]"
23,0.37,"CC(=O)Nc1nccc(Nc2nc(-c3cccc(C(F)F)n3)nc3[nH]ccc23)c1F [Example 31, N-(4-((2-(6-(difluoromethyl)pyridin-2-yl)-7H-pyrrolo[2,3-d]pyrimidin-4-yl)amino)-3-fluoropyridin-2-yl)acetamide]"
24,1.5,"CC(=O)Nc1cc(Nc2nc(-c3cccc(C(F)F)n3)nc3[nH]cc(C)c23)ccn1 [Example 25, N-(4-((2-(6-(difluoromethyl)pyridin-2-yl)-5-methyl-7H-pyrrolo[2,3-d]pyrimidin-4-yl)amino)pyridin-2-yl)acetamide]"
25,0.6,"Cc1nc(-c2nc(Nc3ccncc3F)c3cc[nH]c3n2)ccc1F [Example 11, 2-(5-fluoro-6-methylpyridin-2-yl)-N-(3-fluoropyridin-4-yl)-7H-pyrrolo[2,3-d]pyrimidin-4-amine]"
26,0.42,"O=C(CN1CCCC1)Nc1cc(Nc2nc(-c3cccc(C(F)(F)F)n3)nc3[nH]ccc23)ccn1 [Example 4, 2-(pyrrolidin-1-yl)-N-(4-((2-(6-(trifluoromethyl)pyridin-2-yl)-7H-pyrrolo[2,3-d]pyrimidin-4-yl)amino)pyridin-2-yl)acetamide]"
